Data from US20080213183A1, “Free or Liposomal Gemcitabine Alone or in Combination with Free or Liposomal Idarubicin” (priority 2004, published 2008).
Where a name gives a salt, the structure may show the parent alone. Read-outs that look alike come from different tables or passages of the source. Marks after values point to notes of the source that are not given here.

Tests used:
[1] = tested on: P388 lymphocytic leukemia cells; test: MTT cytotoxicity assay with median effects (Chou and Talalay) analysis; format: cell-based, murine; settings: for IC50 / IC90: Mus musculus; for IC50: P388, 72 h, read-out: IC50 (concentration required to achieve 50% cell kill); for IC90: P388, read-out: IC90 drug concentration (90% cell kill)
Protocol: For in vitro analysis, P388 wild type and doxorubicin resistant (ADR) cells were obtained from the National Cancer Institute tissue repository (Bethesda, Md., USA) and were propagated in vivo. In brief, one vial of frozen ascites was removed from the nitrogen tank and thawed at 37° C. and cells were injected i.p. into female BDF-1 mice (6-8 weeks old, 20-22 g, Charles River Laboratories, St. Constant, QC, Canada). Transfer mice were euthanized and a peritoneal lavage was performed. With a 1 cc syringe with 20 gauge needle, 0.5-1.0 ml of peritoneal fluid was removed and aliquotted into a 15 ml falcon tube containing 5 ml of Hank's Balanced Salt Solution (HBSS, no calcium or magnesium). 0.5 ml aliquot was transferred into another 15 ml conical sterile tube containing 5 ml HBSS. The cells were exposed to plastic culture wear (for adherence of monocytes) and Ficoll-Paque density centrifugation (red blood cell removal). […] For each passage, 2 female BDF-1 mice were injected with 1×10^6 cells in 0.5 ml (2×10^6 cells/ml) of P388 cell suspension intraperitoneally. This was repeated every 6-8 days to a maximum of 20 passages. Cells adequate for animal experiments were used between the 3rd-20th passage. For tissue culture experiments such as MTT cytotoxicity assays, P388 cells were obtained following peritoneal lavage and treatment to remove red blood cells and peritoneal macrophages. […] In order to assess cytotoxicity the MTT (3-(4,5-dimethylthiazol-2-yl)-2,5-diphenyl tetrazolium bromide) assay was utilized. […] The wells in the perimeter of the 96 well microtiter plates contained 0.2 ml sterile water. […] Control wells consisted of media only (200 μl/well), or cells and media (no treatment). There were 6 replicates (per plate) for all control and treatment groups). […] The media was aspirated off and 0.15 ml DMSO was added per well and resuspended on a plate shaker (5-10 min). […] The cytotoxicity upon drug exposure was quantified by expressing the percent cell viability for each treatment relative to untreated control cells (% control). […] This was further analyzed by the median effects principle by Chou and Talalay, cited above. The method by Chou and Talalay was used to distinguish between synergy, antagonism and additive effects of combined drug treatments from in vitro MTT cytotoxicity assays. This method, now provided in a software package (Calculsyn; Biosoft, Cambridge, UK), derives a median effects equation (1) to correlate drug dose and effect. Fixed ratio combinations of idarubicin and gemcitabine were initially selected on the basis of IC50 of each drug. […] Data were reported as mean±S.D. from three separate experiments, performed in triplicate.

[2] = Plasma elimination of free and liposomal gemcitabine; format: in vivo, Balb/c mice; settings: 33 μmole gemcitabine/kg i.v.
Protocol: Pharmacokinetic Analysis: Balb/c mice breeders, 20-22 g, were purchased from Charles River Laboratories (St. Constant, QC, Canada) and bred in-house. Mice were housed in micro-isolator cages and given free access to food and water. All animal studies were conducted according to procedures approved by the University of British Columbia's Animal Care Committee and in accordance with the current guidelines established by the Canadian Council of Animal Care.
The plasma elimination of idarubicin and gemcitabine containing tracer quantities of 3[H]-gemcitabine was assessed. Mice were injected with 33 μmoles/kg drug administered intravenously into the lateral tail vein of Balb/c mice. At various time points up to 4 hours post drug administration, blood was collected by tail nick (collected in microfuge tubes) or cardiac puncture (collected in liquid EDTA coated tubes), centrifuged at 1000 g to isolate the plasma fraction. The plasma was placed in a separate microfuge tube and vortexed to ensure a homogenous distribution.
The tail nick procedure for obtaining blood samples was used to minimize the number of mice sacrificed. In this way, three blood samples could be obtained from a single mouse within a 24 hour time interval. In brief, the lateral tail vein of mice was nicked with a small sharp blade. A 25 μl glass pipette, pre-washed with EDTA, was used to withdraw blood. The blood was expelled into a microfuge tube containing 200 μl of 5% (wt/vol) EDTA and thoroughly mixed. Blood/EDTA samples were centrifuged for 10 minutes at 1000 g. The supernatant was transferred to a 1.5 ml microfuge tube. 250 μl Hank's balanced salt solution (HBSS) was added to the pellet, resuspended and centrifuged for 10 minutes at 1000 g. The supernatants were mixed together. Assuming a 48% hematocrit for a 20 gram Balb/c mice, approximately 13 μl plasma was obtained from a 25 μl blood sample. From the recovered plasma samples, aliquots were used to measure drug (and or lipid) concentrations.
The plasma elimination of liposomal drugs containing doxorubicin, daunorubicin, idarubicin, or gemcitabine samples administered intravenously into the lateral tail vein of Balb/c female mice was assessed. Mice were injected with 33 μmole/kg drug and 165 μmole/kg lipid. For liposomal gemcitabine samples, mice were injected with 33 μmole/kg gemcitabine at an approximate 0.1 drug-to-lipid mole ratio). At various time points post drug administration, blood was collected by tail nick or cardiac puncture. Plasma lipid and 3[H]-gemcitabine were quantified by liquid scintillation counting. Anthracyclines were extracted from plasma with a partitioning assay, followed by fluorescence spectrometer detection.
The plasma elimination data was modeled using WinNonlin (version 1.5) pharmacokinetic software (Pharsight Corporation, Mountain View, Calif., USA) to calculate pharmacokinetic parameters. […] The mean plasma AUC for a defined time interval was determined from the concentration-time curves and subsequent calculation by the standard trapezoidal rule.
Liposome mediated increases in gemcitabine blood residence time were also evaluated as follows: Free and liposomal gemcitabine formulations were administered to female Balb/c mice at a dose of 33 μmole gemcitabine/kg (9.9 mg/kg) and 165 μmole total lipid/kg.

[3] = Dose range finding, maximum tolerable dose; format: in vivo; settings: no significant toxicity for 30 days
Protocol: Dose range finding studies of free and liposomal idarubicin and/or gemcitabine were performed in non-tumor bearing female BDF-1 mice. Mice were weighed daily and monitored for signs of stress or toxicity (e.g., lethargy, scruffy coat, ataxia).

[4] = tested on: non small cell lung cancer; settings: cited from earlier work
[5] = at IC90, GEM/IDA 1:1 fixed molar ratio
[6] = at IC90, GEM/IDA 1:10 fixed molar ratio
[7] = female, Balb/c, mouse, iv, 33 μmole/kg, plasma

Protocol for P388 tumors: For in vivo testing of antitumor activity was evaluated in P388 lymphocytic leukemia model.
Treatments commenced 24 hours post tumor cell inoculation. Treatment groups consisted of saline (control) and 0.5, 1, 2 and 3 mg/kg doses of free or liposomal idarubicin administered as a single i.v. bolus injection and between 100 to 500 mg/kg gemcitabine and 1 to 5 mg/kg liposomal gemcitabine (selected on the basis of dose range finding studies). Fixed dose ratios for combination treatments were defined on the basis of 0.66 MTD when used as a single agent. […] Median survival and percent weight loss was determined for each treatment.
All data values are reported as mean±standard deviation (S.D.). A standard one-way analysis of variance (ANOVA) was used to determine statistically significant differences of the means. For multiple comparisons, post-hoc analysis using the Tukey-Kramer test. Survival curves were computed using the Kaplan-Meier method. […] Treatment groups were subsequently analyzed using SPSS statistics software (SPSS Inc., Chicago, Ill., USA) and compared using a two sample log-rank test. P<0.05 was considered significant for all statistics tests.

Compound: Nc1ccn([C@@H]2O[C@H](CO)[C@@H](O)C2(F)F)c(=O)n1 [GEM, gemcitabine hydrochloride]
- IC50 [1]: 0.26 nM
- IC90 [1]: 0.9 nM
- dose reduction index (DRI) [1, 5]: 1.8
- dose reduction index (DRI) [1, 6]: 14
- fold more cytotoxic than idarubicin ([1]; from IC50): approximately 10 fold
- AUC0-t ([2]; Tlast 4 hours): 0.1^b μmole · h · ml^−1
- AUMC ([2]; plasma): 0.3 μmole · h^2 · ml^−1
- MRT last [2, 7]: 3.1 h
- clearance [2, 7]: 0.102 mL/min
- half-life [2, 7]: 2.1 h
- maximum tolerable dose [3]: 500 mg/kg
- % ILS (P388 tumors; GEM 100 mg/kg): 63%
- % Weight Change, day 5 (P388 tumors; GEM 100 mg/kg): 0.4%
- Cell Kill (P388 tumors; GEM 100 mg/kg): 2.9 LOG10
- MST (P388 tumors; GEM 100 mg/kg): 13 days
- Survivors (P388 tumors; GEM 100 mg/kg): 0/6
- % ILS (P388 tumors; GEM 200 mg/kg): 81%
- % Weight Change, day 5 (P388 tumors; GEM 200 mg/kg): 3.0%
- Cell Kill (P388 tumors; GEM 200 mg/kg): 3.7 LOG10
- MST (P388 tumors; GEM 200 mg/kg): 14.5 days
- Survivors (P388 tumors; GEM 200 mg/kg): 0/6
- % ILS (P388 tumors; GEM 300 mg/kg): 81%
- % Weight Change, day 5 (P388 tumors; GEM 300 mg/kg): 2.3%
- Cell Kill (P388 tumors; GEM 300 mg/kg): 3.7 LOG10
- MST (P388 tumors; GEM 300 mg/kg): 14.5 days
- Survivors (P388 tumors; GEM 300 mg/kg): 0/6
- % Weight Change, day 5 (P388 tumors; GEM 400 mg/kg): 1.8%
- Cell Kill (P388 tumors; GEM 400 mg/kg): 4.0 LOG10
- MST (P388 tumors; GEM 400 mg/kg): 15 days
- Survivors (P388 tumors; GEM 400 mg/kg): 0/6
- % ILS (P388 tumors; GEM 400 mg/kg, hydrochloride): 88%
- % ILS (P388 tumors; GEM 400 mg/kg, listed as free gemcitabine, hydrochloride): 87.5%
- % ILS (P388 tumors; GEM 500 mg/kg): 75%
- % Weight Change, day 5 (P388 tumors; GEM 500 mg/kg): 0.0%
- Cell Kill (P388 tumors; GEM 500 mg/kg): 3.4 LOG10
- MST (P388 tumors; GEM 500 mg/kg): 14 days
- Survivors (P388 tumors; GEM 500 mg/kg): 0/10
- maximum therapeutic dose (P388 tumors; P388 model, single agent): 400 mg/kg
- overall response rate ([4]; 800-1250 mg/m2, in combination with cisplatin): 50%
- overall response rate ([4]; 800-1250 mg/m2, single agent): 20%
- median survival ([4]; in combination with cisplatin): greater than 1 year

Compound: CC(=O)[C@]1(O)Cc2c(O)c3c(c(O)c2[C@@H](O[C@H]2C[C@H](N)[C@H](O)[C@H](C)O2)C1)C(=O)c1ccccc1C3=O [IDA, idarubicin hydrochloride]
- IC50 [1]: 1.8 nM
- IC90 [1]: 5.7 nM
- dose reduction index (DRI) [1, 5]: 11.8
- dose reduction index (DRI) [1, 6]: 8.5
- fold reduction in concentration required ([1]; at IC90, GEM/IDA 10:1 fixed ratio): 180 fold
- % ILS (P388 tumors; IDA 0.5 mg/kg): 13%
- % Weight Change, day 5 (P388 tumors; IDA 0.5 mg/kg): 13.6%
- Cell Kill (P388 tumors; IDA 0.5 mg/kg): 0.6 LOG10
- MST (P388 tumors; IDA 0.5 mg/kg): 9 days
- Survivors (P388 tumors; IDA 0.5 mg/kg): 0/12
- % ILS (P388 tumors; IDA 1 mg/kg): 50%
- % Weight Change, day 5 (P388 tumors; IDA 1 mg/kg): 2.1%
- Cell Kill (P388 tumors; IDA 1 mg/kg): 2.3 LOG10
- MST (P388 tumors; IDA 1 mg/kg): 12 days
- Survivors (P388 tumors; IDA 1 mg/kg): 0/12
- % ILS (P388 tumors; IDA 2 mg/kg): 113%
- % Weight Change, day 5 (P388 tumors; IDA 2 mg/kg): −1.4%
- Cell Kill (P388 tumors; IDA 2 mg/kg): 5.1 LOG10
- MST (P388 tumors; IDA 2 mg/kg): 17 days
- Survivors (P388 tumors; IDA 2 mg/kg): 1/12
